In PubChem BioAssay (NCI):
Values joined by “and” are separate entries in the source; they are usually repeats but may differ in a detail not shown here. Equal values may be shown once.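 All cell lines were grown in 96-well plates and treated with compound for 48 hours. Here, GI50 denotes the concentration required for 50% inhibition of growth. TGI: total growth inhibition.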

Assays:
Assay in all cases: NCI anticancer screen, dose series, 48 h
NCI-H460 lung = tested on: NCI-H460 lung
MOLT-4 leukemia = tested on: MOLT-4 leukemia
HCT-15 colon = tested on: HCT-15 colon
HCT-116 colon = tested on: HCT-116 colon
OVCAR-3 ovarian = tested on: OVCAR-3 ovarian
SF-295 CNS = tested on: SF-295 CNS
SR leukemia = tested on: SR leukemia
K-562 leukemia = tested on: K-562 leukemia
SK-MEL-2 melanoma = tested on: SK-MEL-2 melanoma

Structure (SMILES)	GI50 (NCI-H460 lung)	TGI (NCI-H460 lung)	GI50 (MOLT-4 leukemia)	TGI (MOLT-4 leukemia)	GI50 (HCT-15 colon)	TGI (HCT-15 colon)	GI50 (HCT-116 colon)	TGI (HCT-116 colon)	GI50 (OVCAR-3 ovarian)	TGI (OVCAR-3 ovarian)	GI50 (SF-295 CNS)	TGI (SF-295 CNS)	GI50 (SR leukemia)	TGI (SR leukemia)	GI50 (K-562 leukemia)	TGI (K-562 leukemia)	GI50 (SK-MEL-2 melanoma)	TGI (SK-MEL-2 melanoma)
NC(=O)c1ccc2c(c1)-c1nc-2nc2[n-]c(nc3nc(nc4[n-]c(n1)c1ccc(C(N)=O)cc41)-c1ccc(C(N)=O)cc1-3)c1ccc(C(N)=O)cc21.[Co+2]	> 50 µM	> 50 µM	> 50 µM	> 50 µM	> 50 µM	> 50 µM	> 50 µM	> 50 µM	> 50 µM	> 50 µM	> 50 µM	> 50 µM	33.3 µM	> 50 µM	46.6 µM	> 50 µM	> 50 µM	> 50 µM
CC(C)(CN1C(=O)C(Cl)=C(Cl)C1=O)CN1C(=O)C(Cl)=C(Cl)C1=O		> 77.3 µM		30.1 µM		48.8 µM		27.9 µM		23.2 µM		58.8 µM		36 µM		7.1 µM		41 µM
O=C(O/N=C1\CCCC\C1=C/c1ccccc1)c1ccc([N+](=O)[O-])cc1		> 100 µM		> 100 µM		> 100 µM		> 100 µM		> 100 µM		> 100 µM		> 100 µM		> 100 µM		> 100 µM
O=S1(=O)N2CN3CN(C2)CN1C3		272 µM		864 µM		53.4 µM and 67.2 µM	26.6 µM	44.4 µM and 76.6 µM				63.3 µM				> 31.6 µM and 169 µM		473 µM
O=C(c1ccc(O)cc1O)C1C(c2ccc(O)cc2)OC(c2ccc(O)cc2)C1C(=O)c1ccc(O)cc1O (stereo not given)		> 100 µM								40 µM		67.9 µM						40.3 µM
Nc1ccc2n[se]nc2c1		> 100 µM		> 100 µM		> 100 µM		> 100 µM				> 100 µM		> 100 µM		> 100 µM		> 100 µM
COc1ccc(-c2cc(=O)c3c(O)c(OC)c(OC)c(OC)c3o2)cc1OC				> 100 µM		> 100 µM		> 100 µM		> 100 µM		> 100 µM		> 100 µM		> 100 µM		> 100 µM
CC(C)(C)c1cc(CCC(=O)Nc2ccc(Cl)cc2)[nH]c(=S)n1		> 100 µM		> 100 µM		> 100 µM				> 100 µM		> 100 µM				> 100 µM		> 100 µM
COC(=O)C(=O)Cc1nc2ccccc2s1				> 100 µM		> 100 µM		> 100 µM		> 100 µM		> 100 µM		> 100 µM		> 100 µM		> 100 µM
CCCCC1=CSC(c2ccccc2)=C(c2ccccc2)S1		> 100 µM		> 100 µM		> 100 µM		> 100 µM		> 100 µM		> 100 µM				> 100 µM		
O=C1c2ccccc2C(=O)c2cc3c(cc21)CS(=O)C3		> 100 µM		> 100 µM						> 100 µM		> 100 µM				> 100 µM		> 100 µM
Cn1c(CBr)nc2c1C(=O)c1nc(CBr)[nH]c(=O)c1C2=O		> 100 µM		> 100 µM		> 100 µM		> 100 µM				> 100 µM				> 100 µM		
COC1C2C[C@@H](O)CCC2C(C(=O)OCCl)C[C@H]1O (stereo not given in full)		> 100 µM		> 100 µM		> 100 µM		> 100 µM		> 100 µM				> 100 µM		> 100 µM		> 100 µM
COC(=O)CCSC(=O)Nc1ccc(N=Nc2ccccc2)cc1		> 100 µM		> 100 µM		> 100 µM		> 100 µM		74.9 µM		> 100 µM		> 100 µM		> 100 µM		
CN=c1ss/c(=N\C(=S)N(C)C)n1C		> 100 µM		> 100 µM		> 100 µM		> 100 µM				> 100 µM		> 100 µM		> 100 µM		> 100 µM
NC1NC=NC2C1N=CN2C1OC(CO)C2[O][Sn][O]C21 (stereo not given)	> 100 µM	> 100 µM	> 100 µM	> 100 µM	0.384 µM	> 100 µM	> 100 µM	> 100 µM	> 100 µM	> 100 µM	> 100 µM	> 100 µM			> 100 µM	> 100 µM	> 100 µM	> 100 µM
CCOC(=O)C(C)(NC(=O)c1ccc(NCc2ccc3nc(NC(=O)c4ccccc4)nc(NC(=O)c4ccccc4)c3c2)cc1)C(=O)OCC		32.5 µM		> 100 µM		> 100 µM		24 µM		22.1 µM		19.9 µM		> 100 µM				34.7 µM
O=[N+]([O-])c1ccc(C2=Nc3ccccc3S(=O)C(c3ccccc3)C2)cc1 (stereo not given)		71 µM		57.7 µM		76.2 µM				37.3 µM		> 100 µM				34.5 µM		> 100 µM
COc1cc(C2c3cc4c(cc3[C@@H](NCCN(C)C)C3COC(=O)[C@H]23)OCO4)cc(OC)c1O (stereo not given in full)		0.135 µM and 0.326 µM			1.02 µM	2.63 µM	0.272 µM and 0.715 µM	2.18 µM and 3.79 µM		2.81 µM and 3.31 µM	0.0652 µM and 0.15 µM	1.05 µM and 1.66 µM	14.4 µM	> 100 µM			0.397 µM and 1.22 µM	1.45 µM and 3.19 µM
